{
  "source": "patent US20170369807A1",
  "about": "“Ionic Liquid, Lubricant, and Magnetic Recording Medium” (Dexerials Corporation, priority 2016, published 2017)",
  "key": {"[1]": {"conditions": "in acetonitrile; cited from earlier work"}, "[2]": {"experiment": "Measurement of thermal stability (TG/DTA)", "conditions": "for Weight reduction temperature 5% / Weight reduction temperature 10% / Weight reduction temperature 20%: TG/DTA, 30° C. to 600° C., 10° C./min, air 200 mL/min; for thermal stability (in words): compared with Z-DOL and Z-TETRAOL"}, "[3]": {"experiment": "Solubility test to solvents (visual observation)", "conditions": "ultrasonic waves 5 minutes, left 1 day, visually observed, listed as Example 3A, ammonium", "experimental": "To a predetermined amount of Vertrel XF, n-hexane, or ethanol, the ionic liquid was added. Ultrasonic waves were applied to the resultant mixture for 5 minutes, followed by leaving the mixture to stand for 1 day. The solubility was visually observed.\nAfter applying ultrasonic waves to the resultant for 5 minutes, the resultant was left to stand for 1 day. Thereafter, the solubility was visually observed and evaluated based on the following evaluation criteria.\nSimilarly, after applying ultrasonic waves to the resultant for 5 minutes, the resultant was left to stand for 1 day. Thereafter, the solubility was visually observed and evaluated based on the following evaluation criteria.\nNote that, the solubility was visually observed, and it was judged as soluble when it was transparent. Moreover, it was judged as not soluble (insoluble) when it was opaque or insoluble components were observed."}},
  "data": [
    {"molecule": "O=S(=O)(NS(=O)(=O)C(F)(F)C(F)(F)C(F)(F)C(F)(F)F)C(F)(F)C(F)(F)C(F)(F)C(F)(F)F", "note": "[bis(nonafluorobutanesulfonyl)imide]", "values": [
      {"measurement": "pKa", "setting": "[1]", "value": 0.0}
    ]},
    {"molecule": "O=C(O)C(F)(F)C(F)(F)C(F)(F)C(F)(F)C(F)(F)C(F)(F)C(F)(F)F", "note": "[pentadecafluorooctanoic acid]", "values": [
      {"measurement": "pKa", "setting": "[1]", "value": 12.7}
    ]},
    {"molecule": "perfluorocyclopropane sulfoimide", "values": [
      {"measurement": "pKa", "setting": "[1]", "value": "−0.8"}
    ]},
    {"molecule": "nonafluorobutanesulfonic acid-N-methyloctadecyl ammonium [Comp. Ex. 4A]", "values": [
      {"measurement": "Weight reduction temperature 5%", "setting": "[2]", "value": 346.8, "unit": "°C"},
      {"measurement": "Weight reduction temperature 10%", "setting": "[2]", "value": 364.0, "unit": "°C"},
      {"measurement": "Weight reduction temperature 20%", "setting": "[2]", "value": 381.1, "unit": "°C"},
      {"measurement": "thermal stability (in words)", "setting": "[2]", "value": "high"}
    ]},
    {"molecule": "O=S(=O)(O)C(F)(F)F", "note": "[trifluoromethanesulfonic acid]", "values": [
      {"measurement": "pKa", "setting": "[1]", "value": 0.7}
    ]},
    {"molecule": "nonafluorobutanesulfonic acid-octadecyl ammonium [Comp. Ex. 1A]", "values": [
      {"measurement": "Weight reduction temperature 5%", "setting": "[2]", "value": 338.8, "unit": "°C"},
      {"measurement": "Weight reduction temperature 10%", "setting": "[2]", "value": 355.2, "unit": "°C"},
      {"measurement": "Weight reduction temperature 20%", "setting": "[2]", "value": 370.4, "unit": "°C"},
      {"measurement": "thermal stability (in words)", "setting": "[2]", "value": "high"}
    ]},
    {"molecule": "CCCCCCCCCCCCCCCCCCN.O=S1(=O)NS(=O)(=O)C(F)(F)C(F)(F)C1(F)F", "note": "[Comp. Ex. 3A, hexafluorocyclopropane-1,3-bis(sulfonyl)imide-octadecyl ammonium]", "values": [
      {"measurement": "Weight reduction temperature 5%", "setting": "[2]", "value": 329.6, "unit": "°C"},
      {"measurement": "Weight reduction temperature 10%", "setting": "[2]", "value": 347.0, "unit": "°C"},
      {"measurement": "Weight reduction temperature 20%", "setting": "[2]", "value": 365.1, "unit": "°C"}
    ]},
    {"molecule": "nonafluorobutanesulfonic acid-trimethyloctadecyl ammonium [Comp. Ex. 5A]", "values": [
      {"measurement": "Weight reduction temperature 5%", "setting": "[2]", "value": 340.5, "unit": "°C"},
      {"measurement": "Weight reduction temperature 10%", "setting": "[2]", "value": 356.2, "unit": "°C"},
      {"measurement": "Weight reduction temperature 20%", "setting": "[2]", "value": 371.9, "unit": "°C"},
      {"measurement": "thermal stability (in words)", "setting": "[2]", "value": "high"}
    ]},
    {"molecule": "CCCCCCCCCCCCCCCCCCN(C)C.O=S(=O)(NS(=O)(=O)C(F)(F)C(F)(F)C(F)(F)C(F)(F)F)C(F)(F)C(F)(F)C(F)(F)C(F)(F)F", "note": "[Ex. 1A, bis(nonafluorobutanesulfonyl)imide-N,N-dimethyl-octadecyl ammonium]", "values": [
      {"measurement": "Weight reduction temperature 5%", "setting": "[2]", "value": 315.7, "unit": "°C"},
      {"measurement": "Weight reduction temperature 10%", "setting": "[2]", "value": 337.0, "unit": "°C"},
      {"measurement": "Weight reduction temperature 20%", "setting": "[2]", "value": 356.7, "unit": "°C"}
    ]},
    {"molecule": "F[B-](F)(F)F.[H+]", "note": "[tetrafluoroboric acid]", "values": [
      {"measurement": "pKa", "setting": "[1]", "value": 1.8}
    ]},
    {"molecule": "CCCCCCCCCCCCCCCCCCN.O=S(=O)(NS(=O)(=O)C(F)(F)C(F)(F)C(F)(F)C(F)(F)F)C(F)(F)C(F)(F)C(F)(F)C(F)(F)F", "note": "[Comp. Ex. 2A, bis(nonafluorobutanesulfonyl)imide-octadecyl ammonium]", "values": [
      {"measurement": "Weight reduction temperature 5%", "setting": "[2]", "value": 311.8, "unit": "°C"},
      {"measurement": "Weight reduction temperature 10%", "setting": "[2]", "value": 329.8, "unit": "°C"},
      {"measurement": "Weight reduction temperature 20%", "setting": "[2]", "value": 348.0, "unit": "°C"}
    ]},
    {"molecule": "O=S1(=O)NS(=O)(=O)C(F)(F)C(F)(F)C1(F)F", "note": "[hexafluorocyclopropane-1,3-bis(sulfonyl)imide]", "values": [
      {"measurement": "pKa", "setting": "[1]", "value": "−0.8"}
    ]},
    {"molecule": "bis(nonafluorobutanesulfonyl)imide-N,N-dimethyl-dodecyl ammonium [Ex. 2A]", "values": [
      {"measurement": "Weight reduction temperature 5%", "setting": "[2]", "value": 308.5, "unit": "°C"},
      {"measurement": "Weight reduction temperature 10%", "setting": "[2]", "value": 331.5, "unit": "°C"},
      {"measurement": "Weight reduction temperature 20%", "setting": "[2]", "value": 353.4, "unit": "°C"}
    ]},
    {"molecule": "CCCCCCCCCCCCN(CCCCCCCCCCCC)CCCCCCCCCCCC", "note": "[Ex. 3A, trifluoromethanesulfonic acid-N,N,N-tridodecyl ammonium]", "values": [
      {"measurement": "Solubility Fluorine-based solvent", "setting": "[3]; Vertrel XF [CF3(CHF)2CF2CF3], 25° C.", "value": "≥ 0.2", "unit": "% by mass"},
      {"measurement": "Solubility Ethanol", "setting": "[3]; ethanol", "value": "≥ 0.5", "unit": "% by mass"},
      {"measurement": "Solubility n-Hexane", "setting": "[3]; n-hexane, 25° C.", "value": "≥ 0.5", "unit": "% by mass"},
      {"measurement": "thermal stability improved compared with Z-DOL", "setting": "[2]; compared with Z-DOL (Comparative Example 7C)", "value": "≥ 120", "unit": "°C"},
      {"measurement": "thermal stability improved compared with Z-TETRAOL", "setting": "[2]; compared with Z-TETRAOL (Comparative Example 8C)", "value": "≥ 45", "unit": "°C"}
    ]},
    {"molecule": "O=[N+]([O-])O", "note": "[nitric acid]", "values": [
      {"measurement": "pKa", "setting": "[1]", "value": 9.4}
    ]},
    {"molecule": "pentadecafluorooctanoic acid octadecyl ammonium [Comp. Ex. 6A]", "values": [
      {"measurement": "Weight reduction temperature 5%", "setting": "[2]", "value": 206.9, "unit": "°C"},
      {"measurement": "Weight reduction temperature 10%", "setting": "[2]", "value": 215.8, "unit": "°C"},
      {"measurement": "Weight reduction temperature 20%", "setting": "[2]", "value": 223.4, "unit": "°C"},
      {"measurement": "thermal stability (in words)", "setting": "[2]", "value": "lacked thermal stability"}
    ]},
    {"molecule": "O=S(=O)(O)C(F)(F)C(F)(F)C(F)(F)C(F)(F)F", "note": "[nonafluorobutanesulfonic acid]", "values": [
      {"measurement": "pKa", "setting": "[1]", "value": 0.7}
    ]}
  ]
}
